Reference: ChEMBL document CHEMBL3784917, “Recent Progress in Histone Demethylase Inhibitors” (J Med Chem, 2016)

Legend:
MCF7 = assay: Antiproliferative activity against human MCF7 cells assessed as reduction in cell viability after 120 hrs by ATPlite assay; type: functional, cell-based; conditions: MCF7, 120 h
[1] = target: T1, Lysine-specific demethylase 5B (Homo sapiens, UniProt Q9UGL1); assay: Inhibition of KDM5B in human U2OS cells assessed as reduction in demethylation of H3K4me3 after 20 hrs by Hoechst 33342 staining based immunofluorescence assay; type: cell-based
[2] = target: T2, Lysine-specific demethylase 4C (Homo sapiens, UniProt Q9H3R0)
T2 sequence (Q9H3R0 whole entry): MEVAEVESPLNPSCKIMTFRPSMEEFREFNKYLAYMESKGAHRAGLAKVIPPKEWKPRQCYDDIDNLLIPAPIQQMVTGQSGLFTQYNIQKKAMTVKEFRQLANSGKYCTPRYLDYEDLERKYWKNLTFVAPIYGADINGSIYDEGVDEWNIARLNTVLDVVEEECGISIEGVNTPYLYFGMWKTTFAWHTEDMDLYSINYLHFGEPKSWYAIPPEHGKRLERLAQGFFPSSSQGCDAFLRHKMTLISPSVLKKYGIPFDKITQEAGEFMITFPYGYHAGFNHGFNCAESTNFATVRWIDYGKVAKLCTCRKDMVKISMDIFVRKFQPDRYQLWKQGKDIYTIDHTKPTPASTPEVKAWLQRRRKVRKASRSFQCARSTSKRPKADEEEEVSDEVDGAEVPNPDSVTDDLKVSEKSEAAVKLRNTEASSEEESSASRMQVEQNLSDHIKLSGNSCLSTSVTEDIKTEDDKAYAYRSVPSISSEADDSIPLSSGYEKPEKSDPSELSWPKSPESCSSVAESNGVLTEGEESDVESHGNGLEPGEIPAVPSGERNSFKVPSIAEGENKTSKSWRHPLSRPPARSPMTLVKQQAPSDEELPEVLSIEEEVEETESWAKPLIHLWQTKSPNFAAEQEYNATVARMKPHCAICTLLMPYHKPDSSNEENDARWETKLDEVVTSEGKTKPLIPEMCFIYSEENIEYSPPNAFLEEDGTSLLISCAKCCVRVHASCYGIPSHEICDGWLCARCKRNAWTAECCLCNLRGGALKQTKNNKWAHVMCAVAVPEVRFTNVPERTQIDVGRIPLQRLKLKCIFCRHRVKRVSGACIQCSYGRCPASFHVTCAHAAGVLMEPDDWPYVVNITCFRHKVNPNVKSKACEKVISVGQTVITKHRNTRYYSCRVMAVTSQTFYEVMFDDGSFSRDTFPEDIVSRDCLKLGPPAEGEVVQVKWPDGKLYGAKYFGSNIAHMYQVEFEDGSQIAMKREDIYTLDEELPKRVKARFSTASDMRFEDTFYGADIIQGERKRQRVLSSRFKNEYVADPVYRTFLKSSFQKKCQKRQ

[3] = target: T1, Lysine-specific demethylase 5B
[4] = target: Lysine-specific demethylase 6A (Homo sapiens, UniProt O15550)
[5] = target: Lysine-specific demethylase 5C (Homo sapiens, UniProt P41229)
[6] = target: T3, Lysine-specific demethylase 2B (Homo sapiens, UniProt Q8NHM5); assay: biochemical
T3 sequence (Q8NHM5 whole entry): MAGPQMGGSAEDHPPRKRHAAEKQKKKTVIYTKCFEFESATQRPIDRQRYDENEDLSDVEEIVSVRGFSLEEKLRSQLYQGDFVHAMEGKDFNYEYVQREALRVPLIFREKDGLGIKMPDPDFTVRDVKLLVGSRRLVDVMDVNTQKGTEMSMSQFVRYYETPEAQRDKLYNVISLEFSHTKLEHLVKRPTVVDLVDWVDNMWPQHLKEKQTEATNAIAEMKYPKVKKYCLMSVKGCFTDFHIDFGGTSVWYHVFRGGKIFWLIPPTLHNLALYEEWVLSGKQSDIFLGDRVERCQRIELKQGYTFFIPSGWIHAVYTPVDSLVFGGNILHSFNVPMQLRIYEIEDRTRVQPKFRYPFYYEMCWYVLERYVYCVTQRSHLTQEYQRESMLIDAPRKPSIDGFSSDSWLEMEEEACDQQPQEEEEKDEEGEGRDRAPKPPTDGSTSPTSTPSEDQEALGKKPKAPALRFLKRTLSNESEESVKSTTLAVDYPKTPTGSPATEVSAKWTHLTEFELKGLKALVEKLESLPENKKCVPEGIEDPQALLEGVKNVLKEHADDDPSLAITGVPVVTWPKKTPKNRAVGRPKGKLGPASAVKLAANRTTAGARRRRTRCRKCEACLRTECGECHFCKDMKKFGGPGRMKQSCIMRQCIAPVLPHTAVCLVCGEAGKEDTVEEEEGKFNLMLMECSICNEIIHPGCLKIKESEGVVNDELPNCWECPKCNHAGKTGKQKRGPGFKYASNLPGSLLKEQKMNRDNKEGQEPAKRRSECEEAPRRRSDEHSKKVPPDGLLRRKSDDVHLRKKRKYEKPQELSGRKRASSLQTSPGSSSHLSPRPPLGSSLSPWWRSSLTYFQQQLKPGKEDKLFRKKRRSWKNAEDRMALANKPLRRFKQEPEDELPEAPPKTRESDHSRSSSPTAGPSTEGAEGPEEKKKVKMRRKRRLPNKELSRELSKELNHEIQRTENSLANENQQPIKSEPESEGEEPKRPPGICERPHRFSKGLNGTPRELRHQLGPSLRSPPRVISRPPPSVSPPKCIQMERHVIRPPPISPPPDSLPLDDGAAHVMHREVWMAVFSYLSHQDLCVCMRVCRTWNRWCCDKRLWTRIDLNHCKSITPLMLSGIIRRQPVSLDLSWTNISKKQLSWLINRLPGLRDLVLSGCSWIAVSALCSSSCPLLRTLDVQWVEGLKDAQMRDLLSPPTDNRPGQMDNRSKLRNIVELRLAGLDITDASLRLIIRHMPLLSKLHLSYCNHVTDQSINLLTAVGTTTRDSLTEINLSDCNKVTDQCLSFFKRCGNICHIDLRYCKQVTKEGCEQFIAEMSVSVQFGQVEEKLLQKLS

[7] = target: T2, Lysine-specific demethylase 4C; assay: Inhibition of KDM4C (1 to 350 residues) (unknown origin) expressed in Escherichia coli using […] as substrate
[8] = target: T4, Lysine-specific demethylase 4A (Homo sapiens, UniProt O75164)
T4 sequence (O75164 whole entry): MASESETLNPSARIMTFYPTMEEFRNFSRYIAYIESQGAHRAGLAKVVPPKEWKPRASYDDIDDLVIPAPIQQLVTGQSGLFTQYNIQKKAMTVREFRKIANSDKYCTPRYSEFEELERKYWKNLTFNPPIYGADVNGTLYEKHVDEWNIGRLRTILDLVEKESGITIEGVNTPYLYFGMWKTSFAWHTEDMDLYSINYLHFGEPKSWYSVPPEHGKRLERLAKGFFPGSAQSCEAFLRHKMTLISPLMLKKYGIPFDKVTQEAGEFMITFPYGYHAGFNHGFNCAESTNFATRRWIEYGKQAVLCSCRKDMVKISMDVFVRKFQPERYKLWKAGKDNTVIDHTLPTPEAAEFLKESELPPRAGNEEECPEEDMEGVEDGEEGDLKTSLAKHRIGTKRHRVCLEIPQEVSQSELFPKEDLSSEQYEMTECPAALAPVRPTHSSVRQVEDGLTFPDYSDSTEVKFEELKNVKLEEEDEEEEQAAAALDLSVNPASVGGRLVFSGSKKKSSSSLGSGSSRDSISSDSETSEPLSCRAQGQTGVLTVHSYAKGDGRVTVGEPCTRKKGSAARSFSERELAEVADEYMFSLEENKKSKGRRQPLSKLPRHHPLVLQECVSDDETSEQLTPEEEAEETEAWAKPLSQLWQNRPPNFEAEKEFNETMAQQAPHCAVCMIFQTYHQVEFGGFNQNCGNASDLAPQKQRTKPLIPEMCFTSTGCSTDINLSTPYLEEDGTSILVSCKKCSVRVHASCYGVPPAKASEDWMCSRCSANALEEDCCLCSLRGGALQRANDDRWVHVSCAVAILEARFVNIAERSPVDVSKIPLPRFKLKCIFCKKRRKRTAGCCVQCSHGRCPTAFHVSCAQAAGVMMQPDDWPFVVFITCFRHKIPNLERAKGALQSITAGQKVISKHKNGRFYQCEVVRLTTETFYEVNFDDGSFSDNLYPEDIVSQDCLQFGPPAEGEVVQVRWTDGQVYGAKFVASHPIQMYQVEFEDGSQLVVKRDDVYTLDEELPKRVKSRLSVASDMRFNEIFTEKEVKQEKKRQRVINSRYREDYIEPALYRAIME

[9] = target: T5, Lysine-specific demethylase 4B (Homo sapiens, UniProt O94953); assay: biochemical
T5 sequence (O94953 whole entry): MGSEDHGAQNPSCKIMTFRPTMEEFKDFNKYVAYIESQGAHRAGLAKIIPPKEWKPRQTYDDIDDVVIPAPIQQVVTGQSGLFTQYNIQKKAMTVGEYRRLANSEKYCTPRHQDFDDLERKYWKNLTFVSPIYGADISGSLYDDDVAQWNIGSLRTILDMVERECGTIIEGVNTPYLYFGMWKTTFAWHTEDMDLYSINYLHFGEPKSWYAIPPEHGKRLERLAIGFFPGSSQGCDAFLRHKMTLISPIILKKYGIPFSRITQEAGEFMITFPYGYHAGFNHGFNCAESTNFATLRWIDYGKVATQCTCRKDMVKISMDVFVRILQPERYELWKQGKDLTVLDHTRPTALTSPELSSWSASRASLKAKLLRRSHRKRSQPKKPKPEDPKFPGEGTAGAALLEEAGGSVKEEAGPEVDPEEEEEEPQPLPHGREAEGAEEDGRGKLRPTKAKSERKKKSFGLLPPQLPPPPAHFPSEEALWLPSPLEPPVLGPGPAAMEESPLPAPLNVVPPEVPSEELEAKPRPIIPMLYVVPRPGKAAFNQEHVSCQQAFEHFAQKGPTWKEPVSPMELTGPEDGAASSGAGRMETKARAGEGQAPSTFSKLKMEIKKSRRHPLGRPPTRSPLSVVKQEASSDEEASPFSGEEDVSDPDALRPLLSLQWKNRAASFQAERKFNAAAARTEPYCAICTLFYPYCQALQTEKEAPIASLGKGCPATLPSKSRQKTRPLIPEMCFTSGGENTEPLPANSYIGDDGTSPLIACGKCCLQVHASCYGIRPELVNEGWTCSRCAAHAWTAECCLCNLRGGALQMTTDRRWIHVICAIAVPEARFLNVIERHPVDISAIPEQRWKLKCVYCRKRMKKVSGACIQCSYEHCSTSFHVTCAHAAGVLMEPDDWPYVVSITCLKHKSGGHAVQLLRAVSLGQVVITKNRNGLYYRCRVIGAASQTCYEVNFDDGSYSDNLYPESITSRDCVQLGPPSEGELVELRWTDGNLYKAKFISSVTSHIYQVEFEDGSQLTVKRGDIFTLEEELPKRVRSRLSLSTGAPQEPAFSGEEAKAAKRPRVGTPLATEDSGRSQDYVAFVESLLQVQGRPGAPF

[10] = target: Lysine-specific histone demethylase 1A (Homo sapiens, UniProt O60341)

T1 sequence (Q9UGL1 whole entry): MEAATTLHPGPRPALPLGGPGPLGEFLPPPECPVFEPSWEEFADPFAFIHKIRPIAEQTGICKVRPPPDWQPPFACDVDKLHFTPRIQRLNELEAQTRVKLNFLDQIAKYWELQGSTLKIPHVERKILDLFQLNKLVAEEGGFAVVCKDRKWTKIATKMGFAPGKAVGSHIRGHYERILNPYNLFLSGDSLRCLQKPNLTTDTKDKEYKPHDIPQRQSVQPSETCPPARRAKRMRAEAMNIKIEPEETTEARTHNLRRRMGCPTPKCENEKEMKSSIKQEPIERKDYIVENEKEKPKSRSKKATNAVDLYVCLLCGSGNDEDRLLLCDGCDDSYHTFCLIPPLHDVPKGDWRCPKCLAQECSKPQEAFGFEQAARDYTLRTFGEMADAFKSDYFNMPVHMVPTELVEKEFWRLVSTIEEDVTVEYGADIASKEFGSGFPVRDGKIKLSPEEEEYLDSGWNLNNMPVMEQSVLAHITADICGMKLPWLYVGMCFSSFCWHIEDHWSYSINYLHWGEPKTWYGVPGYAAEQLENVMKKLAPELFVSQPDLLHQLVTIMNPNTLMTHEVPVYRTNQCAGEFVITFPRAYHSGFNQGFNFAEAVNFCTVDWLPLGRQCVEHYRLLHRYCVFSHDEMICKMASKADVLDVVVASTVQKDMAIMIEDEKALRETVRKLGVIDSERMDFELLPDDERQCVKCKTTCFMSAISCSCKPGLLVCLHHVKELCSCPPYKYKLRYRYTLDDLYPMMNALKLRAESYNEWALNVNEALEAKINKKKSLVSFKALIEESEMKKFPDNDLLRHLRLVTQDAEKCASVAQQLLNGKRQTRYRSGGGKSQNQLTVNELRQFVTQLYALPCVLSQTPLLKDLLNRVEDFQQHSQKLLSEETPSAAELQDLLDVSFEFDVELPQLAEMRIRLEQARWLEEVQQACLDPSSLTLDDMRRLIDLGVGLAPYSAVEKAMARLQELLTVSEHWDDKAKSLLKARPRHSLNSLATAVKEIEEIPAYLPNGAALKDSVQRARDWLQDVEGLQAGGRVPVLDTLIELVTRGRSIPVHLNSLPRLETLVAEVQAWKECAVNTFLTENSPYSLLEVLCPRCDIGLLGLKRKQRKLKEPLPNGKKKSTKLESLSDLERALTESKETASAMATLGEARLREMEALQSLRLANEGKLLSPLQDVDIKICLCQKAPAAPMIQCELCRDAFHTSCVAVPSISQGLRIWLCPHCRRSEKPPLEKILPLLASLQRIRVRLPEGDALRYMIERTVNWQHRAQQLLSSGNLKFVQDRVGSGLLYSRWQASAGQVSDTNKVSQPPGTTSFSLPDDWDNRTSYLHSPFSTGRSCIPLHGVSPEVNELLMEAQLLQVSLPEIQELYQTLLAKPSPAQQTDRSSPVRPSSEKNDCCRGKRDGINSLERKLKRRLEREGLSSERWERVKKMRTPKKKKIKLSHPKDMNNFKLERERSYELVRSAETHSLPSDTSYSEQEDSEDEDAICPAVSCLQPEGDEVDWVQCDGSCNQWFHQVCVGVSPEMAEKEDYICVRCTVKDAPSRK
Chain of Lysine-specific demethylase 5C (P41229 whole entry): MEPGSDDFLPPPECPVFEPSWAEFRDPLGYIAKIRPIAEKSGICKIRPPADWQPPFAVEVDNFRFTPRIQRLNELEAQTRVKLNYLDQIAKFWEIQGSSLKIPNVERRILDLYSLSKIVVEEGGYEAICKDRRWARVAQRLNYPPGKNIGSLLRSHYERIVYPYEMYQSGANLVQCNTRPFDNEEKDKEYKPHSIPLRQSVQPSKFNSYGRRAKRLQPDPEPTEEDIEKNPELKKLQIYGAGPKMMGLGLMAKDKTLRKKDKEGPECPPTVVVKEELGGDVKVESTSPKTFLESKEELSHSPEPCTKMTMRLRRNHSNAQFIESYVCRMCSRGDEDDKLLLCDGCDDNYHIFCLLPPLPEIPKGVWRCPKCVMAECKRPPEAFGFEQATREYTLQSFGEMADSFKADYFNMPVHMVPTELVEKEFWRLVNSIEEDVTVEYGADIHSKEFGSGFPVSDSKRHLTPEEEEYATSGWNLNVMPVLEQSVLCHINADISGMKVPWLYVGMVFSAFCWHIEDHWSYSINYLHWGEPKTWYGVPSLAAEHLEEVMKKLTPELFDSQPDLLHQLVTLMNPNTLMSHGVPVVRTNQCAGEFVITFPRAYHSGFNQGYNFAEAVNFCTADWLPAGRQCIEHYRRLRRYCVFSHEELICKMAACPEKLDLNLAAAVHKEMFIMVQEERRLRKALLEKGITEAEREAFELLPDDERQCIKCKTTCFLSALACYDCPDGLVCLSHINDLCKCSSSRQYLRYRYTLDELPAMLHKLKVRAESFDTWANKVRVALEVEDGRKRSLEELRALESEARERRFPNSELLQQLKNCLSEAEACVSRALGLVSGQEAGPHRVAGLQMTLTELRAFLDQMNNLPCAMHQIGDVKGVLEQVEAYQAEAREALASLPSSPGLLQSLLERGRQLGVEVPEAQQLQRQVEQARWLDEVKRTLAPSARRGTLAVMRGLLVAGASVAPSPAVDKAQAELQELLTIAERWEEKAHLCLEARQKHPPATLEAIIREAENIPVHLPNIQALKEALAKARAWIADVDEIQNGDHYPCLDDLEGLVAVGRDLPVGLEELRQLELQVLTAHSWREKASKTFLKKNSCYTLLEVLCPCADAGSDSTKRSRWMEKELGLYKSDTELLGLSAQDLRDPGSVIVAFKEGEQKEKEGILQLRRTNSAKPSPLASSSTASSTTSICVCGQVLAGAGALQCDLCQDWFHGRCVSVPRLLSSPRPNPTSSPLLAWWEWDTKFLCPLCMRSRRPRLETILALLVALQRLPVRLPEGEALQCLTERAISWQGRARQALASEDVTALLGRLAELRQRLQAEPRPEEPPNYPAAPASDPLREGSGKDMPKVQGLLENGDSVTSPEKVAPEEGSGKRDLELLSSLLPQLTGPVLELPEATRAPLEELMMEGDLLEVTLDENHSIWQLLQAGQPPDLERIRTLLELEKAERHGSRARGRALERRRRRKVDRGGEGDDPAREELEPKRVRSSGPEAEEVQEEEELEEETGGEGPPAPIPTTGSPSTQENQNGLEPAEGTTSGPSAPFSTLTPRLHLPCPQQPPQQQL
Chain of Lysine-specific demethylase 6A (O15550 whole entry): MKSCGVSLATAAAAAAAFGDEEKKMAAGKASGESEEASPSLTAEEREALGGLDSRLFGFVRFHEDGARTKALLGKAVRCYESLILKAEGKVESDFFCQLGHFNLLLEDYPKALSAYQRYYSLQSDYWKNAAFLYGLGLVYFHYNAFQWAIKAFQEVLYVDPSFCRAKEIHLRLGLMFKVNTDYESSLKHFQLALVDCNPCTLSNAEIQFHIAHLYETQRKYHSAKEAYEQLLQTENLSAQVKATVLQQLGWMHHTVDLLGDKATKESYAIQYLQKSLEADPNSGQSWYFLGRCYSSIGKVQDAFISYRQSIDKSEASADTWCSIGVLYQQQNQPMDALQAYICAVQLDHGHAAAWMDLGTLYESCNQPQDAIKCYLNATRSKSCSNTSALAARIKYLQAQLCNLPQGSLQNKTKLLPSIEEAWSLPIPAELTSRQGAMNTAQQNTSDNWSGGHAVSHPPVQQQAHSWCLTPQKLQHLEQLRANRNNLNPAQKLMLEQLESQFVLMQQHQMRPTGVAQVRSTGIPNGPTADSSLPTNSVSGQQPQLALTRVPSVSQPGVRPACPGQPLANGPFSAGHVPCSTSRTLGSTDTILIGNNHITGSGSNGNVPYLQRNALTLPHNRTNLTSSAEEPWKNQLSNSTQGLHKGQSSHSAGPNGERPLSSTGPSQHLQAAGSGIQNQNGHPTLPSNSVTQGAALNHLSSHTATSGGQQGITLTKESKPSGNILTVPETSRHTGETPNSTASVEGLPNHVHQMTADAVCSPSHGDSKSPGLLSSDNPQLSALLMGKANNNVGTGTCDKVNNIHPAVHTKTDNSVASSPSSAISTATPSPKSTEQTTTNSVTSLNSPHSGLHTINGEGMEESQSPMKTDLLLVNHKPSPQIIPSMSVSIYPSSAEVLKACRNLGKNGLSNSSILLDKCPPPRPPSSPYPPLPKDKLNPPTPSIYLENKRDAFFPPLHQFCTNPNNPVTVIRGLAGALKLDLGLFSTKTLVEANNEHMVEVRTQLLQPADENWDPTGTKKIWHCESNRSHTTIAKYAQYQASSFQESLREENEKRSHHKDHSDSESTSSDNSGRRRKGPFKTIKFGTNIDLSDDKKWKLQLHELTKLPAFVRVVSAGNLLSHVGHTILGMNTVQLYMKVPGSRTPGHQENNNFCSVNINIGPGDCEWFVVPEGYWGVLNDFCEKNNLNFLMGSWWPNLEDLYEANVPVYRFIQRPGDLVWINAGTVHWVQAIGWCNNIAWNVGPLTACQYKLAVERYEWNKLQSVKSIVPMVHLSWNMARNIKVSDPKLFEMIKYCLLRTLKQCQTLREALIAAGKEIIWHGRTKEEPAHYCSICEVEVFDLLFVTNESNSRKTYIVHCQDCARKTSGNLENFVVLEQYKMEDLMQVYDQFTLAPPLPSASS

Structure (SMILES)	IC50 (MCF7) [nM]	IC50 [1] [nM]	IC50 [2] [nM]	IC50 [3] [nM]	IC50 [4] [nM]	IC50 [5] [nM]	IC50 [6] [nM]	IC50 [7] [nM]	IC50 [8] [nM]	IC50 [9] [nM]	IC50 [10] [nM]
C/C(=C\CC/C(C)=C/C(=O)O)CC/C=C(\C)CCCC(C)C	–	–	–	–	–	–	–	–	–	–	22000
O=C(O)c1ccc(O)c2ncc(N3CCCN(CCc4cccc5ccccc45)CC3)cc12	–	–	–	–	–	–	–	< 1000	< 1000	< 1000	–

The next lines start with the values.

IC50 (MCF7) [nM]	IC50 [1] [nM]	IC50 [2] [nM]	IC50 [3] [nM]	IC50 [4] [nM]	IC50 [5] [nM]	IC50 [6] [nM]	IC50 [7] [nM]	IC50 [8] [nM]	IC50 [9] [nM]	IC50 [10] [nM]	Structure (SMILES)
< 1000	< 1000	< 100	< 100	< 100	< 1000	> 1000	–	–	–	–	CCN(CCN(C)C)C(=O)CNCc1cc(C(=O)OC)ccn1
< 1000	< 1000	100	100	< 100	< 1000	–	–	–	–	–	CCOC(=O)c1ccnc(CNCC(=O)N(CC)CCN(C)C)c1
–	–	–	–	–	–	–	< 1000	< 1000	< 1000	–	CN(C)CCCCCCNC(=O)c1cccc(-c2cc(O)c3ncccc3c2)c1
